According to PubChem BioAssay (NCI):
“And” between values parts separate entries of the source, which are not always exact repeats. Equal entries are not always repeated.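 Protocol summary: plate cells (96-well), add compound at 5 concentrations, incubate 48 h, interpolate endpoints linearly. Abbreviation: GI50, concentration required for 50% inhibition of growth. TGI denotes the concentration required for complete inhibition of growth.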

Legend:
Test in all cases: NCI-60 cell line screen, 48 h
HCT-116 colon = test system: HCT-116 colon
HL-60(TB) leukemia = test system: HL-60(TB) leukemia
NCI-H226 lung = test system: NCI-H226 lung
RPMI-8226 leukemia = test system: RPMI-8226 leukemia
SK-MEL-28 melanoma = test system: SK-MEL-28 melanoma
SNB-75 CNS = test system: SNB-75 CNS
SR leukemia = test system: SR leukemia
SW-620 colon = test system: SW-620 colon
UACC-257 melanoma = test system: UACC-257 melanoma
UACC-62 melanoma = test system: UACC-62 melanoma

| SMILES | GI50 (HCT-116 colon) | TGI (HCT-116 colon) | GI50 (HL-60(TB) leukemia) | TGI (HL-60(TB) leukemia) | GI50 (NCI-H226 lung) [µM] | TGI (NCI-H226 lung) | GI50 (RPMI-8226 leukemia) | TGI (RPMI-8226 leukemia) | GI50 (SK-MEL-28 melanoma) | TGI (SK-MEL-28 melanoma) | GI50 (SNB-75 CNS) | TGI (SNB-75 CNS) | GI50 (SR leukemia) | TGI (SR leukemia) | GI50 (SW-620 colon) | TGI (SW-620 colon) | TGI (UACC-257 melanoma) | GI50 (UACC-62 melanoma) [µM] | TGI (UACC-62 melanoma) [µM] | GI50 (UACC-257 melanoma) |
| --- | --- | --- | --- | --- | --- | --- | --- | --- | --- | --- | --- | --- | --- | --- | --- | --- | --- | --- | --- | --- |
| CN[C@H]1C=C[C@@H]2/C=C(C)/C=C/[C@@H](C)[C@H]([C@H](C)[C@H](O)[C@@H](C)NC(C)=O)OC(=O)/C=C/C=C(C)\C=C\[C@]2(C)C1 | < 0.001 µM and 0.0049 µM | 40.4 µM | 0.0332 µM | 35.7 µM | 0.00743 | 10.3 µM | 0.0049 µM | 33.2 µM | 0.00898 µM | 33.6 µM | 0.0049 µM | 6.08 µM | < 0.001 µM and 0.0049 µM | > 49 µM | 0.00655 µM | > 49 µM | > 49 µM | 0.022 | 19.7 | – |
| Cn1cc(C2=C(c3cn(CCCCN)c4ccccc34)C(=O)NC2=O)c2ccccc21 | > 25 µM | > 25 µM | > 25 µM | > 25 µM | > 25 | > 25 µM | > 25 µM | > 25 µM | > 25 µM | > 25 µM | > 25 µM | > 25 µM | > 25 µM | > 25 µM | > 25 µM | > 25 µM | > 25 µM | > 25 | > 25 | > 25 µM |
| Cc1cnc(NC(=O)Nc2cc(Br)c(C)cc2OC[C@@H]2CNCCO2)cn1 | 3.09 µM and 3.35 µM | > 10 µM and 13.3 µM | 0.388 µM and 0.545 µM | 5.46 µM and 2.43 µM | 5.84 | > 10 µM and 20.8 µM | 3.05 µM and 1.52 µM | > 10 µM and 8.52 µM | 2.21 µM and 2.44 µM | 6.65 µM and 6.88 µM | 4.61 µM and 2.95 µM | > 10 µM and 15.8 µM | 0.306 µM and 0.196 µM | 1.66 µM and 3.72 µM | 3.68 µM and 3.28 µM | > 10 µM and 13.4 µM | 3.59 µM and 8.37 µM | 1.19 | 6.82 | 1.59 µM and 2.44 µM |
| CCc1cccc(C)c1NC(=O)c1sc2nc3c(cc2c1N)CCCCC3 | 3.58 µM | > 100 µM | 2.85 µM | 11.8 µM | 14.5 | > 100 µM | 4.3 µM | 25 µM | 12 µM | > 100 µM | 1.79 µM | 51.5 µM | 2.27 µM | 54 µM | 3.76 µM | > 100 µM | > 100 µM | 3.31 | > 100 | 18.2 µM |
| CC(=O)OCC1OC(n2c(-c3ccc(Cl)cc3)ccc(C#N)c2=S)C(OC(C)=O)C(OC(C)=O)C1OC(C)=O (stereo not given) | – | > 100 µM | – | > 100 µM | – | > 100 µM | – | > 100 µM | – | > 100 µM | 5.05 µM and 26.9 µM | 14 µM and 82.9 µM | > 100 µM and 40.2 µM | > 100 µM | – | > 100 µM | > 100 µM | – | > 100 | – |
| CC(C)CCC(=O)c1ccoc1 | – | > 100 µM | – | > 100 µM | – | > 100 µM | – | > 100 µM | – | > 100 µM | – | > 100 µM | – | > 100 µM | – | > 100 µM | > 100 µM | – | > 100 | – |
| CCCCCC(=O)C(C)C1=Nc2nnc(CCCCCCCc3nnc4n3C(=O)C(C(C)C(=O)CCCCC)=N4)n2C1=O (stereo not given) | – | > 100 µM | – | > 100 µM | – | > 100 µM | – | > 100 µM | – | > 100 µM | – | > 100 µM | – | > 100 µM | – | > 100 µM | > 100 µM | – | > 100 | – |
| O=C1c2ccccc2-c2c1c1c(=O)[nH]c3ccccc3c1n2Cc1ccccc1 | 39.9 µM | > 100 µM | > 100 µM | > 100 µM | 24.5 | 67.4 µM | > 100 µM | > 100 µM | 84.7 µM | > 100 µM | 15.6 µM | 30.1 µM | > 100 µM | > 100 µM | > 100 µM | > 100 µM | > 100 µM | 33.8 | > 100 | > 100 µM |
| COc1ccc(OC)c(/C(C)=N/NC(N)=S)c1 | – | > 100 µM | – | > 100 µM | – | > 100 µM | – | > 100 µM | – | > 100 µM | – | > 100 µM | – | > 100 µM | – | > 100 µM | > 100 µM | – | > 100 | – |
| O=c1c(Oc2ccc(F)cc2F)cc2cnc(NC3CCOCC3)nc2n1CCCO | > 25 µM | > 25 µM | > 25 µM | > 25 µM | > 25 | > 25 µM | > 25 µM | > 25 µM | > 25 µM | > 25 µM | 24.4 µM | > 25 µM | > 25 µM | > 25 µM | > 25 µM | > 25 µM | > 25 µM | > 25 | > 25 | > 25 µM |
| C=C(C)C(=O)O[C@H]1C[C@@]23O[C@@H]2CCC(=C[C@H]2OC(=O)C(=C)[C@H]12)COC3O (stereo not given in full) | – | 37.5 µM | – | 48.3 µM | – | > 100 µM | – | 63 µM | – | – | – | > 100 µM | – | 95.1 µM | – | 36.4 µM | > 100 µM | – | > 100 | – |
| CC(C(=O)c1ccccc1)C(c1ccccc1)N1CCOCC1 (stereo not given) | – | > 100 µM | – | > 100 µM | – | > 100 µM | – | > 100 µM | – | > 100 µM | – | > 100 µM | – | > 100 µM | – | > 100 µM | > 100 µM | – | > 100 | – |
| Cc1nc(SCC(=O)Nc2nc(-c3ccc(Cl)cc3)cs2)n(Nc2ccccc2)c1C | 1.84 µM | 4.62 µM | 2.99 µM | > 100 µM | 3.37 | 18.8 µM | 3.55 µM | > 100 µM | 10.1 µM | 24.6 µM | 3.48 µM | 16.2 µM | 3.81 µM | > 100 µM | 5.5 µM | 22.9 µM | 17 µM | 3.09 | 16.1 | 3.07 µM |
| Nc1ccc(C2=NN(c3ccccc3)C(c3ccc(Cl)cc3)C2)cc1 (stereo not given) | 1.64 µM | 3.01 µM | 3.71 µM | 22.8 µM | 2.13 | 6.38 µM | 1.86 µM | 4.88 µM | 2.07 µM | 4.68 µM | 3.76 µM | 16.2 µM | 1.71 µM | 4.27 µM | 1.67 µM | 3.35 µM | 11.2 µM | 3.12 | 12.9 | 3.13 µM |
